From patent US20230233569A1 (Revolution Medicines, Inc., priority 2020, published 2023)
Read-outs that look alike come from different tables or passages of the source.

Legend:
NRAS Q61R = NRAS Q61R (Homo sapiens, UniProt P01111+P62937, Q61R); experiment: Disruption of BRAF RBD interaction with Ras (FRET / MOA assay, with Cyclophilin A); type: biochemical; details: NRAS Q61R; read-out: NRAS Q61R FRET data IC50
Procedure, shortened: (§1)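 IC50 reflects compound-driven Ras:Cyclophilin A ternary complex displacing BRAF RBD, read as lowered TR-FRET ratio relative to DMSO after Eu anti-His (10 nM) and APC anti-GST (50 nM) detection for 1.5 h. Prior incubation 3 h, 25° C, with 12.5 nM GMPPNP-loaded Ras, 50 nM BRAF RBD, 25 μM Cyclophilin A; top compound 30 μM.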

NRAS Q61K = NRAS Q61K (Homo sapiens, UniProt P01111+P62937, Q61K); experiment: as above; type: biochemical; details: NRAS Q61K; read-out: NRAS Q61K FRET data IC50
Chain of NRAS Q61K (P01111 whole entry Q61K): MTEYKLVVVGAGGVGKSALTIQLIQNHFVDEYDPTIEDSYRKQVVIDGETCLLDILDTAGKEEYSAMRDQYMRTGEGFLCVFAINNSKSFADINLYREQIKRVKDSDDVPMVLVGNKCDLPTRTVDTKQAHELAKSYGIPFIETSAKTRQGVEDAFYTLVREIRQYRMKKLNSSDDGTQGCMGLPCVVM
Chain of NRAS Q61K (P62937 whole entry): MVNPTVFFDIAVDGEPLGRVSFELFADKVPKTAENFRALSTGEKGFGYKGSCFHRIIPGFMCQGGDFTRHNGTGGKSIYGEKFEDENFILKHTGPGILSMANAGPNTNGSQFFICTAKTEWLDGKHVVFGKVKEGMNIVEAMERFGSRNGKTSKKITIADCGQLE
Procedure, shortened: as §1

NRAS WT = NRAS WT (Homo sapiens, UniProt P01111+P62937); experiment: as above; type: biochemical; details: NRAS WT; read-out: NRAS WT FRET data IC50
Chain of NRAS WT (P01111 whole entry): as the sequence (P01111 whole entry Q61K) above, with K61Q counted along it
Chain of NRAS WT (P62937 whole entry): as the sequence (P62937 whole entry) above
Procedure, shortened: as §1

KRAS Q61H = KRAS Q61H (Homo sapiens, UniProt P01116+P62937, Q61H); experiment: as above; type: biochemical; details: KRAS Q61H; read-out: KRAS Q61H FRET data IC50
Chain of KRAS Q61H (P01116 1-169 isoform P01116-2 Q61H limits assumed): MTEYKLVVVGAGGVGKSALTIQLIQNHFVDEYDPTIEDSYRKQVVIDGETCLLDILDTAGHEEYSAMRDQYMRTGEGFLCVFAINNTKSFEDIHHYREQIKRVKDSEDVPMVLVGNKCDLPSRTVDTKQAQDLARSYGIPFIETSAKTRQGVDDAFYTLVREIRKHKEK
Chain of KRAS Q61H (P62937 whole entry): as the sequence (P62937 whole entry) above
Procedure, shortened: as §1

NCI-H358 (K-Ras G12C) = experiment: CellTiter-Glo cell viability assay, 5-day treatment; type: cell-based; details: Homo sapiens, NCI-H358, 120 h
Procedure, shortened: (§2)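 Seeded cells received test compound by direct dispensing. On day 5 the plates sat at room temperature approximately 30 minutes, then luminescence was measured. Data were normalized to DMSO and curve-fitted with four parameters.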

Capan-1 (K-Ras G12V) = experiment: as above; type: cell-based; details: Homo sapiens, CAPAN-1, 120 h
Procedure, shortened: as §2

KRAS WT = KRAS WT (Homo sapiens, UniProt P01116+P62937); experiment: Disruption of BRAF RBD interaction with Ras (FRET / MOA assay, with Cyclophilin A); type: biochemical
Chain of KRAS WT (P01116 1-169 isoform P01116-2 limits assumed): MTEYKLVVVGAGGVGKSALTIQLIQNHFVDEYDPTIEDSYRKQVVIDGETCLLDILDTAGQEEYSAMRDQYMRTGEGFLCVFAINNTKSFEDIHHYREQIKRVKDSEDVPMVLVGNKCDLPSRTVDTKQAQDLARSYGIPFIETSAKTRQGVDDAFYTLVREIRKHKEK
Chain of KRAS WT (P62937 whole entry): as the sequence (P62937 whole entry) above
Procedure, shortened: (§3)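 TR-FRET: nucleotide-loaded K-Ras mutant or WT with Cyclophilin A and BRAF RBD, compound 10-point 3-fold from 30 μM final, 3 h at 25° C, then anti-His Eu (10 nM) and anti-GST APC (50 nM) for 1.5 h. Decreased FRET ratio versus DMSO gives IC50.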

KRAS G13D = KRAS G13D (Homo sapiens, UniProt P01116+P62937, G13D); experiment: as above; type: biochemical
Chain of KRAS G13D (P01116 1-169 isoform P01116-2 G13D limits assumed): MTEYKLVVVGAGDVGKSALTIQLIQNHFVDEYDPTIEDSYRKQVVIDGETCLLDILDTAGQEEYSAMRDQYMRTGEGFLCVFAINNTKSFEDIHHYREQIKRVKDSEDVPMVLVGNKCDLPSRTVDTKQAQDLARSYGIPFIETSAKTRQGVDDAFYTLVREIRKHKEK
Chain of KRAS G13D (P62937 whole entry): as the sequence (P62937 whole entry) above
Procedure, shortened: as §3

KRAS G12C = KRAS G12C (Homo sapiens, UniProt P01116+P62937, G12C); experiment: as above; type: biochemical
Chain of KRAS G12C (P01116 1-169 isoform P01116-2 G12C): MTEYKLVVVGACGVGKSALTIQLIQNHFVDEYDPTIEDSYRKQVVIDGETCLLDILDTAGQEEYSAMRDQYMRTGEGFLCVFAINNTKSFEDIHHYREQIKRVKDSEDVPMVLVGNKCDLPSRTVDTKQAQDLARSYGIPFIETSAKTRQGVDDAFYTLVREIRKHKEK
Chain of KRAS G12C (P62937 whole entry): as the sequence (P62937 whole entry) above
Procedure, shortened: as §3

NRAS G12C = NRAS G12C (Homo sapiens, UniProt P01111+P62937, G12C); experiment: as above; type: biochemical
Chain of NRAS G12C (P01111 whole entry G12C): as the sequence (P01111 whole entry Q61K) above, with G12C, K61Q counted along it
Chain of NRAS G12C (P62937 whole entry): as the sequence (P62937 whole entry) above

KRAS G13C = KRAS G13C (Homo sapiens, UniProt P01116+P62937, G13C); experiment: as above; type: biochemical
Chain of KRAS G13C (P01116 1-169 isoform P01116-2 G13C): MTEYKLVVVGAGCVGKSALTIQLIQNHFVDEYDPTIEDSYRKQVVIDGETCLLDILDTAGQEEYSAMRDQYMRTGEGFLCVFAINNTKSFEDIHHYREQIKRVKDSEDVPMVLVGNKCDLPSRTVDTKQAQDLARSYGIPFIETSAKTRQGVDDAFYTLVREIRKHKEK
Chain of KRAS G13C (P62937 whole entry): as the sequence (P62937 whole entry) above
Procedure, shortened: as §3

KRAS G12V = KRAS G12V (Homo sapiens, UniProt P01116+P62937, G12V); experiment: as above; type: biochemical
Chain of KRAS G12V (P01116 1-169 isoform P01116-2 G12V limits assumed): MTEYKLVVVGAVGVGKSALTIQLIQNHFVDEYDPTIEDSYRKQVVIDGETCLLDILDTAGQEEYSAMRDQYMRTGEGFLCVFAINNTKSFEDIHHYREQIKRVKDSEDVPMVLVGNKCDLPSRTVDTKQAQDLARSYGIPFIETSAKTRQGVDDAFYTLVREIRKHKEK
Chain of KRAS G12V (P62937 whole entry): as the sequence (P62937 whole entry) above
Procedure, shortened: as §3

KRAS G12D = KRAS G12D (Homo sapiens, UniProt P01116+P62937, G12D); experiment: as above; type: biochemical
Chain of KRAS G12D (P01116 1-169 isoform P01116-2 G12D limits assumed): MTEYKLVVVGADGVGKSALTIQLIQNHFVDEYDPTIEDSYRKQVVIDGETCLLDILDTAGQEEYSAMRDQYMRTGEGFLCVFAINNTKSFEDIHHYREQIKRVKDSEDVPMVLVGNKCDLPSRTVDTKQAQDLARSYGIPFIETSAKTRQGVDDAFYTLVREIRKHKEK
Chain of KRAS G12D (P62937 whole entry): as the sequence (P62937 whole entry) above
Procedure, shortened: as §3

KRAS G12S = KRAS G12S (Homo sapiens, UniProt P01116+P62937, G12S); experiment: as above; type: biochemical
Chain of KRAS G12S (P01116 1-169 isoform P01116-2 G12S limits assumed): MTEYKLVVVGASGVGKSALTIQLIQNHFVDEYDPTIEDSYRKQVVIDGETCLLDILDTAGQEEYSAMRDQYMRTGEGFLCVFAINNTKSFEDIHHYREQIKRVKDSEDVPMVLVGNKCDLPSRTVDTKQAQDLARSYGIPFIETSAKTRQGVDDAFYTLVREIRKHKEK
Chain of KRAS G12S (P62937 whole entry): as the sequence (P62937 whole entry) above
Procedure, shortened: as §3

[1] = 5-day treatment, read-out: H358 Cell Viability assay data (K-Ras G12C, IC50)
[2] = 5-day treatment, read-out: Capan-1 Cell Viability assay data (K-Ras G12V, IC50)
[3] = KRAS WT, read-out: KRAS WT FRET data IC50
[4] = KRAS G13D, read-out: KRAS G13D FRET data IC50
[5] = read-out: KRAS G12C FRET data, IC50
[6] = NRAS G12C, read-out: NRAS G12C FRET data IC50
[7] = read-out: KRAS G13C FRET data, IC50
[8] = KRAS G12V, read-out: KRAS G12V FRET data IC50
[9] = read-out: KRAS G12D FRET data, IC50
[10] = read-out: KRAS G12S FRET data, IC50

Chain of NRAS Q61R (P01111 whole entry Q61R): as the sequence (P01111 whole entry Q61K) above, with K61R counted along it
Chain of NRAS Q61R (P62937 whole entry): as the sequence (P62937 whole entry) above

SMILES | IC50 (NRAS Q61R) | IC50 (NRAS Q61K) | IC50 (NRAS WT) | IC50 (KRAS Q61H) | IC50 (NCI-H358 (K-Ras G12C); [1]) | IC50 (Capan-1 (K-Ras G12V); [2]) | IC50 (KRAS WT; [3]) | IC50 (KRAS G13D; [4]) | IC50 (KRAS G12C; [5]) | IC50 (NRAS G12C; [6]) | IC50 (KRAS G13C; [7]) | IC50 (KRAS G12V; [8]) | IC50 (KRAS G12D; [9]) | IC50 (KRAS G12S; [10]) | also measured
CCn1c(-c2cccnc2[C@H](C)OC)c2c3cc(ccc31)-c1cc(O)cc(c1)C[C@H](NC(=O)[C@H](C(C)C)N(C)C(=O)C1Cc3cccnc3C1)C(=O)N1CCC[C@H](N1)C(=O)OCC(C)(C)C2 (stereo partly shown) [Example A250] | 100 to 1000 nM | 100 to 1000 nM | 10 to 100 nM | 10 to 100 nM | 0.01 to 0.1 µM | 0.01 to 0.1 µM | 100 to 1000 nM | 100 to 1000 nM | 10 to 100 nM | 10 to 100 nM | 10 to 100 nM | 10 to 100 nM | 100 to 1000 nM | 10 to 100 nM | –
CCn1c(-c2cccnc2[C@H](C)OC)c2c3cc(ccc31)-c1csc(n1)C[C@H](NC(=O)N1CCCC1)C(=O)N1CCC[C@H](N1)C(=O)OCC(C)(C)C2 [Example A267] | 100 to 1000 nM | 100 to 1000 nM | 100 to 1000 nM | 100 to 1000 nM | 0.1 to 1 µM | 0.1 to 1 µM | – | – | – | – | – | – | – | – | IC50 (KRAS WT; KRAS WT FRET data IC50, KRAS WT): 100 to 1000 nM; IC50 (KRAS G13D; KRAS G13D FRET data IC50, KRAS G13D): 100 to 1000 nM; IC50 (KRAS G12C; KRAS G12C FRET data, IC50): 100 to 1000 nM; IC50 (NRAS G12C; NRAS G12C FRET data IC50, NRAS G12C): 10 to 100 nM; IC50 (KRAS G13C; KRAS G13C FRET data, IC50): 100 to 1000 nM; IC50 (KRAS G12V; KRAS G12V FRET data IC50, KRAS G12V): 100 to 1000 nM; IC50 (KRAS G12D; KRAS G12D FRET data, IC50): 100 to 1000 nM; IC50 (KRAS G12S; KRAS G12S FRET data, IC50): 100 to 1000 nM
CCn1c(-c2cccnc2[C@H](C)OC)c2c3cc(ccc31)-c1csc(n1)C[C@H](NC(=O)[C@H](C(C)C)N(C)C(=O)N1CCC13CCN(C)CC3)C(=O)N1CCC[C@H](N1)C(=O)OCC(C)(C)C2 [Example A273] | 100 to 1000 nM | 100 to 1000 nM | 10 to 100 nM | 10 to 100 nM | 0.01 to 0.1 µM | 0.1 to 1 µM | 100 to 1000 nM | 100 to 1000 nM | 10 to 100 nM | 10 to 100 nM | 100 to 1000 nM | 100 to 1000 nM | 100 to 1000 nM | 10 to 100 nM | –
CCn1c(-c2cccnc2[C@H](C)OC)c2c3cc(ccc31)-c1csc(n1)C[C@H](NC(=O)[C@H](C(C)C)N(C)C(=O)N1CCC13CN(C)C3)C(=O)N1CCC[C@H](N1)C(=O)OCC(C)(C)C2 [Example A274] | 100 to 1000 nM | 100 to 1000 nM | 10 to 100 nM | 10 to 100 nM | 0.1 to 1 µM | 0.1 to 1 µM | 10 to 100 nM | 100 to 1000 nM | 10 to 100 nM | 10 to 100 nM | 100 to 1000 nM | 100 to 1000 nM | 100 to 1000 nM | 100 to 1000 nM | –
CCn1c(-c2cccnc2[C@H](C)OC)c2c3cc(ccc31)-c1csc(n1)C[C@H](NC(=O)[C@H](C(C)C)N(C)C(=O)N1CC[C@@H]1C(=O)NC)C(=O)N1CCC[C@H](N1)C(=O)OCC(C)(C)C2 [Example A281] | 1000 to 10000 nM | 100 to 1000 nM | 1000 to 10000 nM | 100 to 1000 nM | 0.1 to 1 µM | 0.1 to 1 µM | 1000 to 10000 nM | 1000 to 10000 nM | 1000 to 10000 nM | 1000 to 10000 nM | 1000 to 10000 nM | 1000 to 10000 nM | > 10000 nM | 1000 to 10000 nM | –
CCn1c(-c2cccnc2[C@H](C)OC)c2c3cc(ccc31)-c1csc(n1)C[C@H](NC(=O)[C@H](C(C)C)N(C)C(=O)N1CC[C@H]1C(=O)NC)C(=O)N1CC(C)C[C@H](N1)C(=O)OCC(C)(C)C2 (stereo partly shown) [Example A282] | 1000 to 10000 nM | 1000 to 10000 nM | 1000 to 10000 nM | 100 to 1000 nM | 0.1 to 1 µM | 0.1 to 1 µM | 1000 to 10000 nM | 1000 to 10000 nM | 100 to 1000 nM | 100 to 1000 nM | 1000 to 10000 nM | 1000 to 10000 nM | 1000 to 10000 nM | 1000 to 10000 nM | –
CCn1c(-c2cccnc2[C@H](C)OC)c2c3cc(ccc31)-c1csc(n1)C[C@H](NC(=O)[C@H](C(C)C)N(C)C(=O)N1C[C@H](C)N(C)C[C@@H]1C)C(=O)N1CCC[C@H](N1)C(=O)OCC(C)(C)C2 [Example A283] | 100 to 1000 nM | 100 to 1000 nM | 100 to 1000 nM | 100 to 1000 nM | 0.1 to 1 µM | 0.1 to 1 µM | 100 to 1000 nM | 1000 to 10000 nM | 100 to 1000 nM | 100 to 1000 nM | 1000 to 10000 nM | 1000 to 10000 nM | 1000 to 10000 nM | 1000 to 10000 nM | –
CCn1c(-c2cccnc2[C@H](C)OC)c2c3cc(ccc31)-c1csc(n1)C[C@H](NC(=O)[C@H](C(C)C)N(C)C(=O)N1CC3CC(C1)N3C)C(=O)N1CCC[C@H](N1)C(=O)OCC(C)(C)C2 [Example A284] | 1000 to 10000 nM | 100 to 1000 nM | 100 to 1000 nM | 100 to 1000 nM | – | – | 100 to 1000 nM | 100 to 1000 nM | 100 to 1000 nM | 100 to 1000 nM | 100 to 1000 nM | 1000 to 10000 nM | 1000 to 10000 nM | 100 to 1000 nM | IC50 (NCI-H358 (K-Ras G12C); read-out: H358 Cell Viability assay data (K-Ras G12C, IC50, uM), 5-day treatment): 0.1 to 1 µM; IC50 (Capan-1 (K-Ras G12V); read-out: Capan-1 Cell Viability assay data (K-Ras G12V, IC50, uM)): 0.1 to 1 µM
